Experimental data as given in BindingDB's records for doi:10.1016/0014-2999(79)90202-4 (1979).

Target: 5-hydroxytryptamine receptor 7 (Rattus norvegicus, UniProt P32305)
Sequence (P32305 whole entry): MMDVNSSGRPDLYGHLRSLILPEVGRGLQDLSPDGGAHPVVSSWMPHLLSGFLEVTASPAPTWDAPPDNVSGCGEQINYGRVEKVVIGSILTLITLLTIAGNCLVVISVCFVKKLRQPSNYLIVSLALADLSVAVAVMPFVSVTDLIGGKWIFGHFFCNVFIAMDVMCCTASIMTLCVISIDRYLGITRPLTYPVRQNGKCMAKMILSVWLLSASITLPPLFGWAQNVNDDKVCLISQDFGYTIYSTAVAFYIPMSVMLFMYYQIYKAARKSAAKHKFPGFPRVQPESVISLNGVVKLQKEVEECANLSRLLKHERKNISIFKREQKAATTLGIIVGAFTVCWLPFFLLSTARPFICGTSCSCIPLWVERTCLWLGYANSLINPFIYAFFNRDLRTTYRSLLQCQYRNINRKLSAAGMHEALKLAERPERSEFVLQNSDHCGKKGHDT

Row | SMILES | Ki
1 | Cc1cc(C(C)(C)C)c(O)c(C)c1CC1=NCCN1 [SMR000059324] | 23 nM
2 | c1cc2c(c(NC3=NCCN3)c1)CCCC2 | 290 nM
3 | CNC[C@H](O)c1cccc(O)c1 [PHENYLEPHRINE] | 1400 nM
4 | CC(COc1ccccc1)N(CCCl)Cc1ccccc1 (stereo unspecified) | 0.9 nM
5 | c1ccc(CC2=NCCN2)cc1 [Tolazoline] | 2000 nM
6 | CNCC(O)c1ccc(O)c(O)c1 (stereo unspecified) [EPINEPHRINE] | 600 nM

Results, then the compound that gave them:

Row | Ki | SMILES
7 | 5 nM | O=C(NC1CCN(CCc2c[nH]c3ccccc23)CC1)c1ccccc1 [N-{1-[2-(1H-Indol-3-yl)-ethyl]-piperidin-4-yl}-benzamide(indoramin)]
8 | 360 nM | c1ccc2c(c1)OCC(CN1CCCCC1)O2 (stereo unspecified) [Piperoxan]
9 | 1 nM | COc1cccc(OC)c1OCCNCC1Oc2ccccc2OC1c1ccccc1 (stereo unspecified) [NSC_185453]
10 | 43 nM | c1ccc2c(CC3=NCCN3)cccc2c1 [Naphazoline]
11 | 0.1 nM | COc1cc2nc(N3CCN(C(=O)c4ccco4)CC3)nc(N)c2cc1OC [[3H]-Minipress]
